Measurements reported in US20030096237A1, “Determination of the ability of patients to respond to a tumor treatment” (priority 2000, published 2003).

Tested on: melanoma cell lines
Assay: oligonucleotide array, expression of genes encoding tumor associated antigens
Format: cell-based, human
Conditions: six melanoma cell lines, 48 hours, 100 U/ml IFN-α
Experimental: The cell lines CNCM I-2544 (375), CNCM I-2545 (D10), CNCM I-2546 (15), CNCM I-2547 (51), CNCM I-2548 (59) and CNCM I-2549 (67) were cultured for 48 hours in the presence (+) or absence (−) of 100 U/ml IFN-α. The expression patterns of genes encoding tyrosinase, tyrosinase related protein-2 , pmel-17 and mart-1, HLA restricted, tumor associated antigens are reported. Grey bars refer to IFN-α sensitive cell lines and black bars refer to IFN-α resistant lines (see Table 1). Data are presented as average difference of signal intensity between match and mismatch probesets.
Cultured melanoma cells were harvested by scraping and total cellular RNA was extracted. […]
The normalized average difference (nAD) between the signals of the perfect and of the mismatch probesets for each gene was used as the expression level of a given gene. […] Based on nAD, change factors related to IFN-α exposure were also calculated. […]
Total cellular RNA was extracted from the sensitive and resistant melanoma cell lines identified above, reverse transcribed and processed for hybridization to an oligonucleotide array (Hu6800FL, PN 900183) containing probe sets derived from 7000 full-length human genes. Expression levels for each gene were calculated as normalized average difference (nAD, see materials and methods). […]

IFN-α
expression of the genes encoding TAA (MART-1/Melan-A, pmel-17, TRP-2, tyrosinase): does not appear to influence
